The source of these data is US20100093751A1, “Indolizineacetic Acids and Their Therapeutic Use as Ligands of the CRTH2 Receptor” (priority 2006, published 2010).

The term Ki denotes a measure of affinity in units of concentration, obtained from inhibition or displacement. A lower Ki goes with tighter binding.

The experiment concerns the target T1, CRTH2 receptor (Homo sapiens, UniProt Q9Y5Y4).
T1 construct: expressed in transfected cells; host or cells: HEK (human embryonic kidney) cells, membranes
T1 sequence (Q9Y5Y4 1-395): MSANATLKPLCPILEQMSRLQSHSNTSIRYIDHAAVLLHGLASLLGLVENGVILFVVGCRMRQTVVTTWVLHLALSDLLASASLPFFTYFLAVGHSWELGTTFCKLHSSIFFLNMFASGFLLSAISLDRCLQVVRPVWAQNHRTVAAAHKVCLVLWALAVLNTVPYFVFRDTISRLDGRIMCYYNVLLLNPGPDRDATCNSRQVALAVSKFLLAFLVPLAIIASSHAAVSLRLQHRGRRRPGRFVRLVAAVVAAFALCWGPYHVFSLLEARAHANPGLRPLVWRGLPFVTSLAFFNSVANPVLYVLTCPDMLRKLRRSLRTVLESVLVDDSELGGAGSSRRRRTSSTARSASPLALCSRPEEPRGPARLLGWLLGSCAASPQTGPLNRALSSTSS
The experiment is described as follows: CRTH2 radioligand binding assay ([3H]-PGD2 displacement, SPA). Conditions: HEK cell membranes expressing the CRTH2 receptor, 1 nM [3H]-PGD2; Ki from IC50 by Cheng-Prusoff equation. The procedure: Compounds of the invention were tested using the following biological test method to determine their ability to displace PGD2 from the CRTH2 receptor.
Radioligand Binding Assay
The receptor binding assay is performed in a final volume of 200 μL binding buffer [10 mM BES (pH 7.4), 1 mM EDTA, 10 mM manganese chloride, 0.01% BSA] and 1 nM [^3H]-PGD2 (Amersham Biosciences UK Ltd). Ligands are added in assay buffer containing a constant amount of DMSO (1% by volume). Total binding is determined using 1% by volume of DMSO in assay buffer and non-specific binding is determined using 10 μM of unlabeled PGD2 (Sigma). Human embryonic kidney (HEK) cell membranes (3.5 μg) expressing the CRTH2 receptor are incubated with 1.5 mg wheatgerm agglutinin SPA beads and 1 nM [^3H]-PGD2 (Amersham Biosciences UK Ltd) and the mixture incubated for 3 hours at room temperature. Bound [^3H]-PGD2 is detected using a Microbeta TRILUX liquid scintillation counter (Perkin Elmer). Compound IC50 value is determined using a 6-point dose response curve in duplicate with a semi-log compound dilution series. IC50 calculations are performed using Excel and XLfit (Microsoft), and this value is used to determine a Ki value for the test compound using the Cheng-Prusoff equation.

As to `Cc1c(CC(=O)O)c2ccc(F)cn2c1Sc1ccc(S(=O)(=O)N2CCOCC2)cc1F` [Example 1, {6-fluoro-3-[2-fluoro-4-(morpholine-4-sulfonyl)phenylsulfanyl]-2-methylindolizin-1-yl}acetic acid], the affinity corresponds to a Ki of 0.5 nM.

The compound `Cc1c(CC(=O)O)c2ccc(F)cn2c1Sc1ccc(-c2cnn(C)c2)cc1` [Example 4, {6-fluoro-2-methyl-3-[4-(1-methyl-1H-pyrazol-4-yl)phenylsulfanyl]indolizin-1-yl}acetic acid] registered a Ki of 19 nM.
